The subject of one series is SARS-CoV-2. Briefly: microbe, parasite or virus in culture. Format: cell-based.
The nature of series [1]: Cellular toxicity assay, Huh7 cells. Format: cell-based. The following applies: human, read-out: Cytotoxicity CC50 Huh7.
A short description of series [2]: Cellular toxicity assay, PBM cells. To be noted: human.
Series [3] in a line: Cellular toxicity assay, CEM cells. The following applies: human.
Series [4] can be described thus: Cellular toxicity assay, Vero cells. To be noted: African green monkey.
The subject of a further series is HCoV-OC43. Briefly: microbe, parasite or virus in culture. Format: cell-based. To be noted: Betacoronavirus 1, OC43.
The next series deals with CEM cells. The series can be described thus: Cellular toxicity assay, CEM cells. The following applies: read-out: Cytotoxicity CC50 CEM; CEM cells.
In series [5] the test system is Vero cells. The series can be described thus: Cellular toxicity assay, Vero cells. The following applies: read-out: Cytotoxicity CC50 Vero; Vero cells.
The subject of series [6] is Vero cells. Briefly: Incubation of NHC in Vero cells, LC-MS/MS of deoxy-NHC derivatives. To be noted: 4 h at 37° C.
In series [7] the target is T1, ribonucleotide reductase (RNR) (Homo sapiens, UniProt P23921).
T1 sequence (P23921 1-792): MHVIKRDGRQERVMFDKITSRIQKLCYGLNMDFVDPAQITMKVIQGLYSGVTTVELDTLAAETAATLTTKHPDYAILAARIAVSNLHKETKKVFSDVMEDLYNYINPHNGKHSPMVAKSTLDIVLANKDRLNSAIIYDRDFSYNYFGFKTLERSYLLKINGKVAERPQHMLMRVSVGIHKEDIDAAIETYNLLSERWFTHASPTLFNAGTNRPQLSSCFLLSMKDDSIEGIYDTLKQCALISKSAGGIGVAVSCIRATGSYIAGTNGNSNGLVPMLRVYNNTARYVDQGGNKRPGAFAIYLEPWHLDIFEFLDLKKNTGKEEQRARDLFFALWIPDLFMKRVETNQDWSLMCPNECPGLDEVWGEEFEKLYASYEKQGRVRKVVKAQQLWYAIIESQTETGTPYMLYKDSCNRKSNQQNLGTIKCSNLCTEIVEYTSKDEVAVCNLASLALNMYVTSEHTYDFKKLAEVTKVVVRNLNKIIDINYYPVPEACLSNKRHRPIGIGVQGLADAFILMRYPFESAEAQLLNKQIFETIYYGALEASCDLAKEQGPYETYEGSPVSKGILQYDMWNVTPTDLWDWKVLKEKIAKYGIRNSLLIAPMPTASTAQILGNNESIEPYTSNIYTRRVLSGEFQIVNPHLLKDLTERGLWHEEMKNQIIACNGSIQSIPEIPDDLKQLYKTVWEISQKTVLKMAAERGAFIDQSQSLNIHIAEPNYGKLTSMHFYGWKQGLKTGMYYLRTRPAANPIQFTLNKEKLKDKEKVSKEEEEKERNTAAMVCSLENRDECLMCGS
T1 sequence (P31350 1-389 partner): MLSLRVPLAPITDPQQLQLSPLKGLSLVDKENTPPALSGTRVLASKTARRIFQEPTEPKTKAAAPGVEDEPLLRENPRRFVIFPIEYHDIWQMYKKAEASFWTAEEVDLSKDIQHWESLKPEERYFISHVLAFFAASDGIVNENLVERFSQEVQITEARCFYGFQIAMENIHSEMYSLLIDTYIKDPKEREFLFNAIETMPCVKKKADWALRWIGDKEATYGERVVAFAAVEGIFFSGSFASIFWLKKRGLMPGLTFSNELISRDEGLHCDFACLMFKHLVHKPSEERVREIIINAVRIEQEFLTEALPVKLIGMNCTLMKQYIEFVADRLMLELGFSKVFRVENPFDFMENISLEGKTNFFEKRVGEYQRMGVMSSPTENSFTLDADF

Setting [8] is: Severe acute respiratory syndrome coronavirus 2, Calu-3, Calu3 cells, read-out: Anti-SARS-CoV-2 Activity (Calu3) EC50.
[9] abbreviates: Severe acute respiratory syndrome coronavirus 2, Calu-3, Calu3 cells, read-out: Anti-SARS-CoV-2 Activity (Calu3) EC90.
[10] abbreviates: Severe acute respiratory syndrome coronavirus 2, Vero cells, read-out: Anti-SARS-CoV-2 Activity (Vero) EC50.
Where [11] appears, read: Severe acute respiratory syndrome coronavirus 2, Vero cells, read-out: Anti-SARS-CoV-2 Activity (Vero) EC90.

The text below walks through data of patent US20240262857A1, “NOVEL UNIVERSAL ANTI-RNA VIRUS AGENTS” (priority 2021, published 2024).

Read-outs that look alike come from different tables or passages of the source.

`CC1(O)C(O)[C@H](n2ccc(NO)nc2=O)O[C@@H]1CO` (stereo partly shown): the EC50 (commonly the concentration that produces a half-maximal response) is greater than 100000 nM in the series on SARS-CoV-2 (setting [8]) and 600 nM in the series with SARS-CoV-2 (setting [10]). In addition, the concentration for an effect of 90% (EC90) (in general, the concentration at which the effect reaches the 90% level) was greater than 100000 nM in the series on SARS-CoV-2 (setting [9]) and 7400 nM in the series with SARS-CoV-2 (setting [11]). For the same compound, the CC50 (as a rule, the concentration at which the toxic effect on the cells reaches its halfway point) in series [1] was no less than 100000 nM; in series [2], greater than 100000 nM; in [3] it was greater than 100000 nM; in [4] it was greater than 100000 nM.

As to `[2H]C1(O)C(O)[C@H](n2ccc(NO)nc2=O)O[C@@H]1CO` (stereo partly drawn) [D-NHC], the EC50 is 200 nM in the series on SARS-CoV-2 (setting [8]) and 100 nM with SARS-CoV-2 (setting [10]). Besides, the concentration for an effect of 90% (EC90) with SARS-CoV-2 (setting [9]) turned out to be 900 nM; in the series with SARS-CoV-2 (setting [11]), 250 nM. The values for the CC50 in [1], in [2] and in series [4] were 27700 nM, 24100 nM and 41600 nM, respectively.

For the compound `O=c1nc(NO)ccn1[C@@H]1O[C@H](CO)[C@@H](O)[C@H]1O` [NHC, N^4-hydroxycytidine], the EC50 amounted to 600 nM in the series on SARS-CoV-2 (setting [8]); 300 nM in the series with SARS-CoV-2 (Severe acute respiratory syndrome coronavirus 2, read-out: Anti-SARS-Cov-2 EC50); 200 nM in the series with SARS-CoV-2 (setting [10]); 800 nM in the series with HCoV-OC43 (read-out: Anti-Hcov-OC43 EC50). Moreover, the concentration for an effect of 90% (EC90) in the series on SARS-CoV-2 (setting [9]) was determined as 2000 nM; with SARS-CoV-2 (setting [11]), 420 nM; with SARS-CoV-2 (Severe acute respiratory syndrome coronavirus 2, read-out: Anti-SARS-Cov-2 EC90) it was 800 nM; in the series on HCoV-OC43 (read-out: Anti-Hcov-OC43 EC90) it was 1800 nM. In addition, the results for the half-maximal cytotoxic concentration (CC50) with CEM cells and in the series on Vero cells [5] were 2600 nM and 16500 nM, respectively. Besides, the “deoxy-NHC-TP detected in vero cells” value in the series with Vero cells [6] (10 μM NHC, cell pellet) was “not”; in the series with Vero cells [6] (50 μM NHC, cell pellet) it was “trace amount”. Also, in the series with Vero cells [6] (cell pellet), the “level of deoxy-NHC, -MP and -DP in vero cells” value is on record as “below limit of detection”. For the same compound, in the series on Vero cells [6] (supernatant), the “deoxy-NHC or its derivatives in vero cell medium” value is listed as “no deoxy-NHC or its derivatives was detected”.

Take `O=c1nc(NO)ccn1[C@@H]1O[C@H](COP(=O)(O)OP(=O)(O)O)[C@@H](O)[C@H]1O` [NHC-DP]: in series [7], the “ratio diphosphate : 2'-deoxy-diphosphate in the samples after RNR reaction” value is on record as “around 100:0.1” and the “ratio triphosphate : 2'-deoxy-triphosphate in the samples after RNR reaction” value is given as ~100:0.009.
